In patent publication US12180193B2, “Accelerating fibrosarcoma protein degrading compounds and associated methods of use” (Arvinas Operations, Inc., priority 2020, dated 2024):

Experiments:
BRAF V600E = molecular target: T1, BRAF V600E (Homo sapiens, UniProt P15056, V600E); experiment: Cellular assay of target protein degradation, T-Rex 293 cells stably transfected with HA-BRAF_V600E (HA immunofluorescence, high content imaging); format: cell-based; conditions: T-Rex 293 HA-BRAF V600E; for DC50: half maximal degradation, read-out: BRaf V600E DC50; for Dmax: maximum degradation observed
T1 construct: expressed in transfected cells
T1 sequence (P15056 whole entry V600E): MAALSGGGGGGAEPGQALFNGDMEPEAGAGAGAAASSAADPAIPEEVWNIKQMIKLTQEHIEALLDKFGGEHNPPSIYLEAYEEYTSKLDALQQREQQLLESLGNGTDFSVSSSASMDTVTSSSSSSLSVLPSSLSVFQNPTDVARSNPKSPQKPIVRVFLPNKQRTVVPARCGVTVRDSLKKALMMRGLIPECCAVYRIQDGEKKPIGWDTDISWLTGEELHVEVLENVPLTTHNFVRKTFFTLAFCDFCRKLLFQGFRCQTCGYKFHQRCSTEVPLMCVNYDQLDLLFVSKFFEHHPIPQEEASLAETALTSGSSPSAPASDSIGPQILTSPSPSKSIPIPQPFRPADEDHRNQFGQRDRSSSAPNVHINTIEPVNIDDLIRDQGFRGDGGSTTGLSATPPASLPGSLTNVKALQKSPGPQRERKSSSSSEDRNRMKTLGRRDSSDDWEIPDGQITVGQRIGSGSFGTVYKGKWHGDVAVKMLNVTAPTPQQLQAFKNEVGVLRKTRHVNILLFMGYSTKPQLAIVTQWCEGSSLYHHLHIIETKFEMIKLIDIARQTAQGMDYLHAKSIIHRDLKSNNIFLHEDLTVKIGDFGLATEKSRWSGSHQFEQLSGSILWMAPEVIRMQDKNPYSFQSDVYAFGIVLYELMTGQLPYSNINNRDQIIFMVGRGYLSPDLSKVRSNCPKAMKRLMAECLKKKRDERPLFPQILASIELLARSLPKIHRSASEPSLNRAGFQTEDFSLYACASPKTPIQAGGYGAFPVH
How it was run: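 24 h compound exposure, 1 μM–0.1 nM final, 0.1% DMSO, 37 °C; cells induced with 1 ng/mL doxycycline. PFA fix, Triton permeabilize, anti-HA overnight 4 °C, Hoechst/phalloidin counterstain. Output: DC50, Dmax as % control.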

BRAF G466V = molecular target: T2, BRAF G466V (Homo sapiens, UniProt P15056, G466V); experiment: Cellular assay of target protein degradation, T-Rex 293 cells stably transfected with HA-BRAF G466V (HA immunofluorescence, high content imaging); format: cell-based; conditions: T-Rex 293 HA-BRAF G466V; for DC50: half maximal degradation, read-out: BRaf G466V DC50; for Dmax: maximum degradation observed
T2 construct: expressed in transfected cells
T2 sequence (P15056 whole entry G466V): as the sequence (P15056 whole entry V600E) above, with G466V, E600V counted along it
How it was run: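 24 h compound, 30 nM–3 pM final, 0.1% DMSO, 37° C; HA-BRAF G466V induced with 0.75 ng/mL doxycycline. PFA fix, Triton perm, anti-HA + Alexa fluor secondary, Hoechst/phalloidin counterstain; imaging. DC50, Dmax (% of control).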

Structure (SMILES) | DC50 (BRAF V600E) [nM] | Dmax (BRAF V600E) [%] | DC50 (BRAF G466V) [nM] | Dmax (BRAF G466V) [%]
O=C1CCC(N2Cc3cc(CCCN4CC5(C4)CN(c4ccc(-c6cnc7[nH]cc(C(=O)c8c(F)ccc(NS(=O)(=O)N9CCC(F)(F)C9)c8F)c7c6)cc4)C5)ccc3C2=O)C(=O)N1 (stereo not shown) [Compound 248, N-(3-{5-[4-(6-{3-[2-(2,6-dioxopiperidin-3-yl)-1-oxo-2,3-dihydro-1H-isoindol-5-yl]propyl}-2,6-diazaspiro[3.3]heptan-2-yl)phenyl]-1H-pyrrolo[2,3-b]pyridine-3-carbonyl}-2,4-difluorophenyl)-3,3-difluoropyrrolidine-1-sulfonamide] | 5 to 50 | 35 to 70 | 1 to 10 | > 70
COc1cc(N2CC3(CN(CC4CCN(c5ccc(-c6cnc7[nH]cc(C(=O)c8c(F)ccc(NS(=O)(=O)N9CC[C@@H](F)C9)c8F)c7c6)cc5)CC4)C3)C2)cc2c1C(=O)N([C@H]1CCC(=O)NC1=O)C2 [Compound 249, (3R)-N-{3-[5-(4-{4-[(6-{2-[(3S)-2,6-dioxopiperidin-3-yl]-7-methoxy-1-oxo-2,3-dihydro-1H-isoindol-5-yl}-2,6-diazaspiro[3.3]heptan-2-yl)methyl]piperidin-1-yl}phenyl)-1H-pyrrolo [2,3-b]pyridine-3-carbonyl]-2,4-difluorophenyl}-3-fluoropyrrolidine-1-sulfonamide] | 5 to 50 | 35 to 70 | 1 to 10 | > 70
COc1cc(N2CC3(CN(CC4CCN(c5ccc(-c6cnc7[nH]cc(C(=O)c8c(F)ccc(NS(=O)(=O)N9CC[C@@H](F)C9)c8F)c7c6)cc5)CC4)C3)C2)cc2c1C(=O)N([C@@H]1CCC(=O)NC1=O)C2 [Compound 250, (3R)-N-{3-[5-(4-{4-[(6-{2-[(3R)-2,6-dioxopiperidin-3-yl]-7-methoxy-1-oxo-2,3-dihydro-1H-isoindol-5-yl}-2,6-diazaspiro[3.3]heptan-2-yl)methyl]piperidin-1-yl}phenyl)-1H-pyrrolo [2,3-b]pyridine-3-carbonyl]-2,4-difluorophenyl}-3-fluoropyrrolidine-1-sulfonamide] | 5 to 50 | < 35 | 1 to 10 | > 70
O=C1CCC(N2Cc3cc(OCCCCN4CCN(c5ccc(-c6cnc7[nH]cc(C(=O)c8c(F)ccc(NS(=O)(=O)N9CCC(F)(F)C9)c8F)c7c6)cc5)CC4)ccc3C2=O)C(=O)N1 (stereo not shown) [Compound 251, N-[3-(5-{4-[4-(4-{[2-(2,6-dioxopiperidin-3-yl)-1-oxo-2,3-dihydro-1H-isoindol-5-yl]oxy}butyl)piperazin-1-yl]phenyl}-1H-pyrrolo[2,3-b]pyridine-3-carbonyl)-2,4-difluorophenyl]-3,3-difluoropyrrolidine-1-sulfonamide] | 5 to 50 | 35 to 70 | 1 to 10 | 35 to 70
O=C1CC[C@H](N2Cc3cc(C4CCN(CC5CCN(c6ccc(-c7cnc8[nH]cc(C(=O)c9c(F)ccc(NS(=O)(=O)N%10CC[C@@H](F)C%10)c9Cl)c8c7)cc6)CC5)CC4)ccc3C2=O)C(=O)N1 [Compound 252, (3R)-N-{2-chloro-3-[5-(4-{4-[(4-{2-[(3S)-2,6-dioxopiperidin-3-yl]-1-oxo-2,3-dihydro-1H-isoindol-5-yl}piperidin-1-yl)methyl]piperidin-1-yl}phenyl)-1H-pyrrolo [2,3-b]pyridine-3-carbonyl]-4-fluorophenyl}-3-fluoropyrrolidine-1-sulfonamide] | 5 to 50 | 35 to 70 | < 1 | 35 to 70
Cc1c(NS(=O)(=O)N2CC[C@@H](F)C2)ccc(F)c1C(=O)c1c[nH]c2ncc(-c3ccc(N4CCC(CN5CCC(c6ccc7c(c6)CN([C@H]6CCC(=O)NC6=O)C7=O)CC5)CC4)cc3)cc12 [Compound 253, (3R)-N-{3-[5-(4-{4-[(4-{2-[(3S)-2,6-dioxopiperidin-3-yl]-1-oxo-2,3-dihydro-1H-isoindol-5-yl}piperidin-1-yl)methyl]piperidin-1-yl}phenyl)-1H-pyrrolo [2,3-b]pyridine-3-carbonyl]-4-fluoro-2-methylphenyl}-3-fluoropyrrolidine-1-sulfonamide] | 5 to 50 | 35 to 70 | 1 to 10 | 35 to 70
Nc1ccc(F)c(C(=O)c2c[nH]c3ncc(-c4ccc(N5CCC(CN6CCC(c7ccc8c(c7)CN([C@H]7CCC(=O)NC7=O)C8=O)CC6)CC5)cc4)cc23)c1F [Compound 254, (3S)-3-(5-{1-[(1-{4-[3-(3-amino-2,6-difluorobenzoyl)-1H-pyrrolo[2,3-b]pyridin-5-yl]phenyl}piperidin-4-yl)methyl]piperidin-4-yl}-1-oxo-2,3-dihydro-1H-isoindol-2-yl) piperidine-2,6-dione] | > 500 | – | < 1 | < 35
N#Cc1cc(-c2cnc3[nH]cc(C(=O)c4c(F)ccc(NS(=O)(=O)N5CC[C@@H](F)C5)c4F)c3c2)ccc1N1CCC(CN2CCC(c3ccc4c(c3)CN(C3CCC(=O)NC3=O)C4=O)CC2)CC1 (stereo partly drawn) [Compound 255, (3R)-N-[3-(5-{3-cyano-4-[4-({4-[2-(2,6-dioxopiperidin-3-yl)-1-oxo-2,3-dihydro-1H-isoindol-5-yl]piperidin-1-yl}methyl)piperidin-1-yl]phenyl}-1H-pyrrolo [2,3-b]pyridine-3-carbonyl)-2,4-difluorophenyl]-3-fluoropyrrolidine-1-sulfonamide] | 5 to 50 | 35 to 70 | < 1 | > 70
COc1cc(-c2cnc3[nH]cc(C(=O)c4c(F)ccc(NS(=O)(=O)N5CC[C@@H](F)C5)c4F)c3c2)ccc1N1CCC(CN2CCC(c3ccc4c(c3)CN([C@H]3CCC(=O)NC3=O)C4=O)CC2)CC1 [Compound 256, (3R)-N-{3-[5-(4-{4-[(4-{2-[(3S)-2,6-dioxopiperidin-3-yl]-1-oxo-2,3-dihydro-1H-isoindol-5-yl}piperidin-1-yl)methyl]piperidin-1-yl}-3-methoxyphenyl)-1H-pyrrolo[2,3-b]pyridine-3-carbonyl]-2,4-difluorophenyl}-3-fluoropyrrolidine-1-sulfonamide] | 5 to 50 | 35 to 70 | < 1 | > 70
CNc1cc(-c2cnc3[nH]cc(C(=O)c4c(F)ccc(NS(=O)(=O)N5CC[C@@H](F)C5)c4F)c3c2)ccc1N1CCC(CN2CCC(c3ccc4c(c3)CN(C3CCC(=O)NC3=O)C4=O)CC2)CC1 (stereo partly drawn) [Compound 257, (3R)-N-[3-(5-{4-[4-({4-[2-(2,6-dioxopiperidin-3-yl)-1-oxo-2,3-dihydro-1H-isoindol-5-yl]piperidin-1-yl}methyl)piperidin-1-yl]-3-(methylamino)phenyl}-1H-pyrrolo[2,3-b]pyridine-3-carbonyl)-2,4-difluorophenyl]-3-fluoropyrrolidine-1-sulfonamide] | 5 to 50 | 35 to 70 | 1 to 10 | > 70
O=C1CC[C@H](N2Cc3cc(N4CCC(CN5CCC6(CCN(c7ccc(-c8cnc9[nH]cc(C(=O)c%10c(F)ccc(NS(=O)(=O)N%11CC[C@@H](F)C%11)c%10F)c9c8)cc7F)CC6)C5)CC4)ccc3C2=O)C(=O)N1 [Compound 258, (3R)-N-{3-[5-(4-{2-[(1-{2-[(3S)-2,6-dioxopiperidin-3-yl]-1-oxo-2,3-dihydro-1H-isoindol-5-yl}piperidin-4-yl)methyl]-2,8-diazaspiro[4.5]decan-8-yl}-3-fluorophenyl)-1H-pyrrolo[2,3-b]pyridine-3-carbonyl]-2,4-difluorophenyl}-3-fluoropyrrolidine-1-sulfonamide] | < 5 | 35 to 70 | < 1 | 35 to 70
O=C1CC[C@@H](N2Cc3cc(N4CCC(CN5CCC6(CCN(c7ccc(-c8cnc9[nH]cc(C(=O)c%10c(F)ccc(NS(=O)(=O)N%11CC[C@@H](F)C%11)c%10F)c9c8)cc7F)CC6)C5)CC4)ccc3C2=O)C(=O)N1 [Compound 259, (3R)-N-{3-[5-(4-{2-[(1-{2-[(3R)-2,6-dioxopiperidin-3-yl]-1-oxo-2,3-dihydro-1H-isoindol-5-yl}piperidin-4-yl)methyl]-2,8-diazaspiro[4.5]decan-8-yl}-3-fluorophenyl)-1H-pyrrolo[2,3-b]pyridine-3-carbonyl]-2,4-difluorophenyl}-3-fluoropyrrolidine-1-sulfonamide] | < 5 | 35 to 70 | < 1 | 35 to 70
N#Cc1cc(-c2cnc3[nH]cc(C(=O)c4c(F)ccc(NS(=O)(=O)N5CC[C@@H](F)C5)c4F)c3c2)cc(C#N)c1N1CCC(CN2CCC(c3ccc4c(c3)CN([C@H]3CCC(=O)NC3=O)C4=O)CC2)CC1 [Compound 260, (3R)-N-{3-[5-(3,5-dicyano-4-{4-[(4-{2-[(3S)-2,6-dioxopiperidin-3-yl]-1-oxo-2,3-dihydro-1H-isoindol-5-yl}piperidin-1-yl)methyl]piperidin-1-yl}phenyl)-1H-pyrrolo [2,3-b]pyridine-3-carbonyl]-2,4-difluorophenyl}-3-fluoropyrrolidine-1-sulfonamide] | 5 to 50 | 35 to 70 | 1 to 10 | 35 to 70
N#Cc1cc(-c2cnc3[nH]cc(C(=O)c4c(F)ccc(NS(=O)(=O)N5CC[C@@H](F)C5)c4F)c3c2)cc(C#N)c1N1CCC(CN2CCC(c3ccc4c(c3)CN(C3CCC(=O)NC3=O)C4=O)CC2)CC1 (stereo partly drawn) [Compound 261, (3R)-N-[3-(5-{3,5-dicyano-4-[4-({4-[2-(2,6-dioxopiperidin-3-yl)-1-oxo-2,3-dihydro-1H-isoindol-5-yl]piperidin-1-yl}methyl)piperidin-1-yl]phenyl}-1H-pyrrolo [2,3-b]pyridine-3-carbonyl)-2,4-difluorophenyl]-3-fluoropyrrolidine-1-sulfonamide] | 5 to 50 | 35 to 70 | 1 to 10 | > 70
